Experimental data from patent US20110212181A1, “COMPOSITIONS AND METHODS FOR TREATING CHRONIC RESPIRATORY INFLAMMATION” (The University of Hong Kong, priority 2010, published 2011).
Values belong to the molecule of their own block, whether it stands above or below them.

Experiments:
[1] = molecular target: T1, NE (Homo sapiens, UniProt P08246); assay: Surface plasmon resonance competition assay, NE binding to HS-SA sensor chip; settings: for competition for NE binding to immobilized HS (in words): solution-surface competition, SPR; for competitive effectiveness (inhibition of NE binding to immobilized HS): NE at 1,000 nM, competing glycosaminoglycans at 1,000 ng/ml
T1 sequence (P08246 30-267): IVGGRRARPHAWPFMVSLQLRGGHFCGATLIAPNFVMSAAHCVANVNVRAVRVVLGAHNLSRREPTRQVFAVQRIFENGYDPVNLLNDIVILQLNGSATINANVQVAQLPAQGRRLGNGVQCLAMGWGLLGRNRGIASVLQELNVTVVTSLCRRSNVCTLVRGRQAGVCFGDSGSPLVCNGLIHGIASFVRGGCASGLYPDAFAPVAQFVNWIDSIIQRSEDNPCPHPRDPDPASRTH
Method: (§1) Interactions of HS and NE were analyzed with a BIAcore 2,000 optical biosensor (BIAcore, Uppsala, Sweden). HS chains recovered from rhSyn-1 after LiOH treatment were biotinylated at the reducing ends (68 nmol biotin/mg HS, as determined by Quant*Tag Biotin kit; Vector Laboratories, Peterborough, UK). By a 2-minute injection of biotinylated HS, […] in 10 mM Hepes (pH 7.4), 0.15 M NaCl, and 0.005% P20 surfactant (HBS-P; BIAcore), at a flow rate of […] onto the streptavidin (SA) sensor chip (BIAcore), increase in 250 resonance units indicated successful immobilization of HS onto the sensor chip. Increasing concentrations of NE in HBS-P buffer were perfused (at […] for 2 min) in turn over the HS-SA sensor chip, each followed by perfusion of buffer to facilitate dissociation. Responses were monitored at 25° C. The sensor chip was regenerated with perfusion of 2 M NaCl/HBS-P. Resonance data obtained from sensorgrams were evaluated with BIAevaluation 3.0 software (BIAcore) to yield rate constants for association (ka), dissociation (kd) and the equilibrium dissociation constant (Kd). For competition assays, NE (2,000 nM) premixed at 1:1 (vol/vol) with defined concentrations (250-2,000 ng/ml) of the competing glycosaminglycan-chondroitin 4-sulfate (C4S), heparin, and chemically modified heparins (N-desulfated re-N-acetylated, completely desulfated re-N-acetylated, or 2-O and 6-O desulfated and N-sulfated; Seikagaku) in HBS-P buffer for 30 minutes at 4° C. was injected onto the HS-SA sensor chip at […]. Dissociation and regeneration procedures were as described above. […] All experiments were preformed in duplicate. Resonance data obtained from sensorgrams were plotted as percent inhibition relative to that obtained without competing glycosaminoglycan. The concentration of competing glycosaminoglycan that interfered with NE binding to the HS-SA sensor by 50% was determined using the statistical program, PRISM (GraphPad, Inc., San Diego, Calif.).

[2] = molecular target: T1, NE; assay: Surface plasmon resonance analysis of NE-HS binding
Method: as §1

[3] = molecular target: T2, rhSyn-1 (Homo sapiens, UniProt P18827); assay: Western ligand blot of rhSyn-1; assay type: binding
T2 construct: made in house
T2 sequence (P18827 23-310): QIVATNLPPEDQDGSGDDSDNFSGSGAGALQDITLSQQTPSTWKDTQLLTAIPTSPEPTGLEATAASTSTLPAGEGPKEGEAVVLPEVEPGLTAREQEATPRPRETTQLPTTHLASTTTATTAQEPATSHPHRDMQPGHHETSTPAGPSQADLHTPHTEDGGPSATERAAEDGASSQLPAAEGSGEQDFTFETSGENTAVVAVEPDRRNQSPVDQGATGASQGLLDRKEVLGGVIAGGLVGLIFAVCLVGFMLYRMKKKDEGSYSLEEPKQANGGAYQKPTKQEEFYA
Method: Sputum sol was treated (30 min, 24° C.) with the mucolytic reducing agent, DTT (5 mM; Sigma) to deactivate NE, dialyzed against PBS (16 h, 4° C.) to remove DTT, and then incubated (16 h, 37° C.) with HS^ase I and II (0.01 unit each; Seikagaku, Tokyo, Japan) or chondroitinase ABC (0.01 unit; Seikagaku). Control treatments were performed in the relevant incubation buffer (product sheet; Seikagaku), but without the indicated enzymes. The digestion products were subjected to Western blot and Western ligand blot analyses. Recombinant Syn-1 was similarly treated, deglycanated, and analyzed, but without prior treatment with DTT.
Sputum sol samples were treated with DTT, as described above, and then subjected to SDS-PAGE in a 10% gel under nonreducing conditions. The gel electrophoretogram was electroblotted onto polyvinylidene fluoride membrane and nonspecific binding was blocked with 5% nonfat dry milk (1 h, 24° C.) before the blot was probed for the epitope of interest. […] Secondary antibodies were conjugated with horseradish peroxidase. The membranes were washed with PBS-Tween® 20 between incubations. Visualization was enhanced with an enhanced chemiluminescence kit (Amersham Biosciences, Piscataway, N.J.). […]

[4] = molecular target: T1, NE; assay: Inhibition of NE activity in the presence of rhSyn-1 or sputum sol; assay type: biochemical; settings: incubations with rhSyn-1 and with sputum samples, with and without prior HS^ase I and II treatment
Method: Unopposed NE activity in sputum sol was assessed for equivalent molar concentration by active-site titration. The NE activity of sputum sol was estimated using MeO-Suc-Ala-Ala-Pro-Val-p-nitroanilide as substrate at 2 mM in 0.2 M Tris-HCl, 0.5 M NaCl (pH 8.0); the hydrolytic release of p-nitroaniline was followed at 410 nm, 37° C. (molar extinction coefficient at 410 nm=8,800). An equivalent activity of purified human NE (Sigma, St. Louis, Mo.) was titrated with increasing concentrations of the irreversible inhibitor, MeO-Suc-Ala-Ala-Pro-Val-CMK (Calbiochem, La Jolla, Calif.), and the residual activities were measured.
The inhibitor effects were compared with those of parallel procedure performed on DTT-pretreated sputum sol samples of the 12 patient recruits.

[5] = NE over immobilized HS, 1:1 Langmuir model

competition for NE binding to immobilized HS (in words) [1]: failed to outcompete
competition for NE binding to immobilized HS (in words) ([1]; listed as CS): not
Molecule: chondroitin 4-sulfate [C4S]

competition for NE binding to immobilized HS (in words) [1]: failed to outcompete
Molecule: Completely desulfated and re-N-acetylated heparin

competitive effectiveness (inhibition of NE binding to immobilized HS) [1]: 95%
competition for NE binding to immobilized HS (in words) [1]: Effective competition
Molecule: heparin

Kd ([2]; NE (50-1,500 nM) perfused over immobilized HS from rhSyn-1, 1:1 Langmuir model, 25° C., read-out: equilibrium dissociation constant (Kd)): 14.2 nM
ka, rate constant for association [2, 5]: 3.31 ± 0.14 × 10^4 M^−1s^−1
kd, rate constant for dissociation [2, 5]: 4.69 ± 0.21 × 10^−4 s^−1
Molecule: heparan sulfate [HS]

binding to glycanated rhSyn-1 [3]: not
binding to deglycanated rhSyn-1 core protein ([3]; after heparitinase and chondroitinase treatments): binding
Molecule: alpha-1-antitrypsin [α1-AT]

competitive effectiveness (inhibition of NE binding to immobilized HS) [1]: approximately 75%
Molecule: N-desulfated and re-N-acetylated heparin

competitive effectiveness (inhibition of NE binding to immobilized HS) [1]: approximately 60%
Molecule: 2-0 and 6-0 desulfated and N-sulfated heparin

inhibition of NE activity (in words) [4]: complete inhibition
B1: eglin C (peptide, UniProt P01051 1-70, looked up)
Eglin C: TEFGSELKSFPEVVGKTVDQAREYFTLHYPQYDVYFLPEGSPVTLDLRYNRVRVFYNPGTNVVNHVPHVG
